{"source": "patent US20220031641A1", "about": "“COMPOSITIONS AND METHODS FOR TREATING AND PREVENTING COGNITIVE DYSFUNCTION” (Pharmatrophix, Inc., priority 2019, published 2022)", "molecules": {"B1": {"name": "BDNF: brain-derived neurotrophic factor, recombinant protein, ligand of TrkB (protein, UniProt P23560 19-247, looked up)", "Neurotrophic factor BDNF …": "APMKEANIRGQGGLAYPGVRTHGTLESVNGPKAGSRGLTSLADTFEHVIEELLDEDQKVRPNEENNKDADLYTSRVMLSSQVPLEPPLLFLLEEYKNYLDAANMSMRVRRHSDPARRGELSVCDSISEWVTAADKKTAVDMSGGTVTVLEKVPVSKGQLKQYFYETKCNPMGYTKEGCRGIDKRHWNSQCRTTQSYVRALTMDSKKRIGWRFIRIDTSCVCTLTIKRGR"}}, "key": {"[1]": {"system": "human iPSC-derived OPCs", "assay": "In vitro oligodendrogenesis in human iPSC-derived OPCs (PDGFRa+, MBP+ cells)", "type": "cell-based", "settings": "day 25-35 of OPC induction; 20 ng/ml BDNF or 1000 nM LM22A-4; fixed at day 100", "excerpt": "(§1) Cells were fixed at day 100 following induction and the percent of DAPI+ cells expressing the OPC marker PDGFRa was quantified. […] Green=PDGFRa, white=DAPI. Scale bar=10 μm. […] Cells were fixed at day 100 following induction and the percent of DAPI+ cells expressing the mature oligodendrocyte marker MBP was quantified. […] Red=MBP, white=DAPI. Scale bar=10 μm. […] White-dashed circle=lesioned area in the corpus callosum. Scale bar=20 μm. […] FIG. 5K-FIG. 5M show representative confocal images of proliferating OPCs as shown by EdU incorporation into PDGFRa+ cells in mouse OPC cultures treated with vehicle control (FIG. 5K), 50 nM BDNF (FIG. 5L) and 100 nM LM22A-4 (FIG. 5M).\n(§2) Thus, to therapeutically manipulate BDNF-TrkB signaling to promote oligodendrogenesis, we tested a small molecule TrkB partial agonist, LM22A-4. […] To determine if LM22A-4 could promote OPC proliferation and differentiation in a manner similar to BDNF, we compared the effects of recombinant BDNF, LM22A-4 or vehicle control in cultures of murine OPCs."}, "[2]": {"system": "P6-8 mouse OPCs", "assay": "Oligodendroglial differentiation (CC1+ cells) in murine OPC cultures", "type": "cell-based", "settings": "seven-day exposure; BDNF 50 nM, LM22A-4 100 nM daily", "excerpt": "as §1, §2"}, "[3]": {"system": "P6-8 mouse OPCs", "assay": "OPC proliferation index (EdU+/PDGFRa+) in cultures of murine OPCs", "type": "cell-based", "settings": "24-hour exposure; 0-1000 nM concentration range", "excerpt": "as §1, §2"}, "[4]": {"system": "BDNF protein", "settings": "mouse, in vivo"}, "[5]": {"system": "OPCs in the corpus callosum", "settings": "MTX at P21, 28, 35; one month (P63) and 6 months (P203) after cessation; cited from earlier work"}, "[6]": {"system": "myelinated axons in the cingulum of the corpus callosum", "type": "in vivo, mouse", "settings": "for g-ratio: LM22A-4 50 mg/kg i.p. daily P38-P62, analysed P63", "method": "(§3) A single point indicates the g-ratio for a single axon. Approximately 100 axons were quantified and the mean g-ratio determined for each mouse. P-values (indicated on plots) were determined by a Student's t-test, comparing the mean g-ratio on a per mouse basis between groups. […] At P63, the Novel Object Recognition Test was performed in mice previously exposed to MTX chemotherapy or PBS vehicle control and later treated with LM22A-4 or vehicle control. Percent preference for novel object was measured as the percent time spent with novel object over the total time spent with either object (n=4 mice in each group). Statistical significance was determined by a one-sample t-test, where the average percent preference for the novel object for each group was measured against a hypothetical value of 50% chance an animal would interact with either object. […] Scale bars=2 μm. FIG. 6F-FIG. 6G show myelin microstructure data shown in FIG. 6C are shown as scatterplots of g-ratio as a function of axon caliber. […] LM22A-4 increases myelin sheath thickness in control mice. […] LM22A-4 rescues myelin deficits in mice exposed to juvenile MTX in small caliber axons (<0.5 μm; n=7 mice, p=0.005), medium caliber axons (0.5 μm-1.0 μm; n=7, p=0.006) and large caliber axons (>1.0 μm; n=7 mice; p=0.033) compared to mice exposed to MTX but treated with vehicle control. Data in FIG. 6A-FIG. 6E shown as mean±SEM, ns=p>0.05, * p<0.05, ** p<0.01 *** p<0.001 as determined by Student's t-test.\n(§4) The chemotherapy-induced neurological syndrome is characterized by decreased attention and memory function and this is recapitulated in the MTX mouse model used here. To test the hypothesis that BDNF to TrkB signaling could promote myelination and improve cognitive dysfunction after chemotherapy exposure, mice were subjected to the above MTX chemotherapy protocol, then treated systemically with the TrkB partial agonist LM22A-4 (50 mg/kg i.p. daily, P38-P62, FIG. 6A) or vehicle control, and analyzed at 24 hours after the final injection (P63) for changes in myelin microstructure and behavioral performance in the novel object recognition test.\n(§5) Myelin microstructure in the cingulum of the corpus callosum was examined by transmission electron microscopy. […] The myelin microstructural effects of LM22A-4 thus mimic activity-regulated changes in myelin microstructure, but would lack the circuit-specificity of the activity-regulated response. To test the influence of LM22A-4 on a behavioral measure of attention and memory function, the novel object recognition test was used. After brief introduction to two identical objects, mice are then exposed to one familiar object as well as a completely novel object after a time delay of 5-minutes. […] Treatment with LM22A-4 from P38-P62 rescues performance in the novel object recognition test in MTX treated mice as these mice spend a significant percentage of their time interacting with the novel object over the familiar object (MTX+vehicle: 47.94%±3.50%, p=0.5968 over 50%; PBS+vehicle: 63.37%±4.72%, p=0.0219 over 50%; MTX+LM22A-4: 62.81%±3.31%, p=0.0305 over 50%; PBS+LM22A-4: 68.93%±6.34%, p=0.0317 over 50%; FIG. 6E)."}, "[7]": {"type": "in vivo, mouse", "settings": "LM22A-4 50 mg/kg i.p. daily P38-P62, tested P63", "method": "as §3, §4, §5"}, "[8]": {"molecular_target": "TrkB receptor (Homo sapiens, UniProt Q16620)", "sequence (Q16620 32-822)": "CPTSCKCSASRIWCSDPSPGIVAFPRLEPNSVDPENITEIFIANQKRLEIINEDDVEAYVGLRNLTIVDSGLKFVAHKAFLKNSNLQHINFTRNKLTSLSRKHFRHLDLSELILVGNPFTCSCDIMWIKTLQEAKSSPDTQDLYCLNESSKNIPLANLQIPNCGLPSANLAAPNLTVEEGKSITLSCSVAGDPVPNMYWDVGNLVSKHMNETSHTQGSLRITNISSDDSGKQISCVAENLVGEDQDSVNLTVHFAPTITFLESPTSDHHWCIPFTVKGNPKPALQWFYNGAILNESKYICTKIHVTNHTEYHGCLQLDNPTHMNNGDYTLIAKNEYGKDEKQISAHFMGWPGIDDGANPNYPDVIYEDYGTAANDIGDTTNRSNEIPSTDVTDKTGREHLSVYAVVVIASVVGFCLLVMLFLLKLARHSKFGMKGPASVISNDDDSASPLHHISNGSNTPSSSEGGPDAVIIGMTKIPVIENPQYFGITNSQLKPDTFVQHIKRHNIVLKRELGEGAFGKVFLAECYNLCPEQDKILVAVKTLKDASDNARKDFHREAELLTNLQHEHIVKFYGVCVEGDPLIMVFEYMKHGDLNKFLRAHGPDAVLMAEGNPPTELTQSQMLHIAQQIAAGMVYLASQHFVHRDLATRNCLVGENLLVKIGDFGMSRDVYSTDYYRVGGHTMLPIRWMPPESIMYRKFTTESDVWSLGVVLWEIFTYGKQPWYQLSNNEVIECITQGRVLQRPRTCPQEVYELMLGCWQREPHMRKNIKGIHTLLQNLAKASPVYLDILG", "settings": "previously shown; cited from earlier work"}, "[9]": {"system": "lysolecithin-induced demyelination in the corpus callosum", "assay": "Lysolecithin demyelination model, OPC proliferation and oligodendrogenesis in corpus callosum lesion", "type": "in vivo, mouse", "excerpt": "as §1\nTo investigate the effects of LM22A-4 treatment on OPC proliferation and oligodendrogenesis in vivo, we next examined mice treated with either LM22A-4 or vehicle control in a well-established demyelination model. Stereotaxic injection of lysolecithin into white matter regions causes a focal, toxic, demyelinating injury; this leads to microglial activation and demyelination, followed by OPC proliferation, recruitment and migration into the lesion area. […]"}, "[10]": {"settings": "BDNF protein; cited from earlier work"}}, "note": "Read-outs that look alike come from different tables or passages of the source."}
{"molecule": "BDNF: brain-derived neurotrophic factor, recombinant protein, ligand of TrkB", "values": [{"measurement": "in vitro oligodendrogenesis in human oligodendroglial lineage cells", "setting": "[1]", "result": "similarly promote in vitro oligodendrogenesis"}, {"measurement": "oligodendroglial differentiation, cells expressing CC1 relative to vehicle control", "setting": "[2]", "result": "similarly promoted oligodendroglial differentiation"}, {"measurement": "proliferative index of OPCs (fraction of total cells in S phase, co-localization of PDGFRa with EdU)", "setting": "[3]", "result": "increased the proliferative index"}]}
{"molecule": "CN(Cc1cnc2nc(N)nc(N)c2n1)c1ccc(C(=O)N[C@@H](CCC(=O)O)C(=O)O)cc1", "note": "[MTX, methotrexate]", "values": [{"measurement": "corpus callosum BDNF protein levels", "setting": "[4]", "result": "5350 ± 1740", "unit": "pg/mL"}, {"measurement": "decrease in corpus callosum BDNF protein levels compared to PBS vehicle controls", "setting": "[4]", "result": "more than three-fold decrease"}, {"measurement": "OPCs in the corpus callosum after MTX exposure", "setting": "[5]", "result": "lasting reduction of OPCs in the corpus callosum"}]}
{"molecule": "O=C(NCCO)c1cc(C(=O)NCCO)cc(C(=O)NCCO)c1", "note": "[LM22A-4, N,N′,N″-tris(2-hydroxyethyl)-1,3,5-benzenetricarboxamide]", "values": [{"measurement": "in vitro oligodendrogenesis in human oligodendroglial lineage cells", "setting": "[1]", "result": "similarly promote in vitro oligodendrogenesis"}, {"measurement": "oligodendroglial differentiation, cells expressing CC1 relative to vehicle control", "setting": "[2]", "result": "similarly promoted oligodendroglial differentiation"}, {"measurement": "g-ratio", "setting": "[6]; MTX-exposed mice (100 mg/kg i.p. P21, 28, 35)", "result": "0.733±0.017"}, {"measurement": "myelin thickness by axon caliber", "setting": "[6]; MTX-treated mice, small (<0.5 μm), medium (0.5-1.0 μm), large (>1.0 μm) caliber axons", "result": "increased myelin thickness in small, medium and large caliber axons"}, {"measurement": "g-ratio", "setting": "[6]; PBS-exposed mice", "result": "0.713±0.010"}, {"measurement": "percent preference for novel object", "setting": "[7]; MTX-exposed mice", "result": "62.81%±3.31%"}, {"measurement": "percent preference for novel object", "setting": "[7]; PBS-exposed mice", "result": "68.93%±6.34%"}, {"measurement": "proliferative index of OPCs (fraction of total cells in S phase, co-localization of PDGFRa with EdU)", "setting": "[3]", "result": "similarly increased the proliferative index of OPCs in the low nanomolar range and in a dose-dependent manner"}, {"measurement": "TrkB receptor activation", "setting": "[8]", "result": "activate the TrkB receptor specifically"}, {"measurement": "density of EdU+/PDGFRa+ proliferating OPCs in lesioned area", "setting": "[9]; 50 mg/kg i.p. for one week from day 7 after lysolecithin injection", "result": "1132±67.1", "unit": "cells/mm3"}, {"measurement": "density of EdU+/CC1+ newly generated mature oligodendrocytes in lesioned area", "setting": "[9]; 50 mg/kg, day 7 to 21 following lysolecithin injury", "result": "764.8±141.6", "unit": "cells/mm3"}]}
{"molecule": "B1", "values": [{"measurement": "blood-brain-barrier penetration", "setting": "[10]", "result": "poor blood-brain-barrier penetration"}, {"measurement": "plasma half-life", "setting": "[10]", "result": "short plasma half-life"}]}
